# Laboratory results reported in patent US20050026836A1, “Composition for the treatment of damaged tissue” (priority 1999, published 2005).
# Key:
# uPA and MMP-3 = experiment: Inhibition of uPA and MMP-3-mediated KGF-2 degradation (dual protease assay); type: biochemical, human; details: uPA and MMP-3 together / KGF-2; inhibitors used (100 μM), alone or in combination
# Procedure: The extent of proteolysis of the growth factors was assayed by incubating TGF-β2, VEGF, PDGF-BB and KGF-2 with the proteases uPA, plasmin, MMP-3 and MMP-13 in assay buffer (either uPA/plasmin buffer, 50 mM tris-HCl, pH 7.4 or MMP assay buffer, 100 mM Tris, 10 mM NaCl, 10 mM CaCl2, 0.05% (w/v) Brij 35, pH 7.5). […] The growth factors were added to the incubation mixture at a final concentration of […], unless otherwise stated.
# The effects of uPA were determined by incubation at a typical final concentration of 25 μg/ml (1500 U/ml) with each growth factor. The effects of plasmin were determined at a typical final concentration of 0.1 mg/ml by incubation with the individual growth factors in assay buffer. MMP-3 and -13 were incubated at a typical final concentration of 10 nM with the growth factors in assay buffer. Dual protease assays carried out with uPA and MMP-3 together were performed in 100 mM Tris, […], 10 mM CaCl2, 0.05% (w/v) Brij 35, pH 7.5. All incubations were performed in siliconised tubes (Sigma Aldrich, UK).
# The inhibitors used in these experiments were compound 9454, compound 9470 and compound 5214. These were dissolved in DMSO at a concentration of 10 mM. Typical final concentrations for these inhibitors were in the range of 100 μM to 10 nM. Aprotinin was dissolved in the Tris buffer at 10 mg/ml and used at a typical concentration of 10 μg/ml. […]
# [1] = biological target: T1, catalytic domain human MMP-14 (Homo sapiens, UniProt P50281); experiment: MMP-14 fluorogenic inhibition assay; type: biochemical; details: read-out: Calculated Ki(nM) MMP-14
# T1 construct: made in house
# Procedure: All enzymes were pre-activated at 37° C. with aminophenylmercuric acetate (APMA) or trypsin before being made up to the final concentrations used in the assay. MMP-1 (30 nM) was activated with 0.93 mM APMA for 20 minutes, MMP-2 (30 nM) was activated with 1.32 mM APMA for 1 hour, MMP-3 (1010 nM) was activated with 1.81 mM APMA for 3 hours or heat activated at 55° C. for three hours, MMP-9 (100 nM) was activated with 2 mM APMA for 2 hours, human MMP-13 (100 nM) was activated with 2 mM APMA for 2 hours, and MMP-14 (900 nM) was activated with 0.9 ng/ml trypsin for 25 minutes, followed by the addition of 4.5 ng/ml trypsin inhibitor.
# For MMP-1, the assay buffer used was 50 mM Tris, 200 mM NaCl, 5 mM CaCl2, 20 μM ZnCl2, 0.05% (w/v) Brij 35, pH 7.5. […] For MMP-13, the assay buffer used was 50 mM Tris, pH 7.5, 200 mM NaCl, 5 mM CaCl2, […] and 0.02% (w/v) Brij 35. For MMP-14, the assay buffer used was 50 mM Tris, 100 mM NaCl, 10 mM CaCl2, 0.25% (w/v) Brij 35, pH 7.5.
# MMP-14 inhibition was assayed by incubating activated catalytic domain human MMP-14 at 1 nM in assay buffer with 10 μM Mca-Pro-Leu-Gly-Leu-Dpa-Ala-Arg-NH2 and six concentrations of inhibitor. The incubation was performed at 37° C. for 60 minutes.
# The final assay concentrations of inhibitors used in the MMP-1 assays to determine Ki were 50, 40, 30, 20, 10 and 5 μM. For MMP-2, the final assay concentrations of inhibitors used were 1000, 800, 600, 400, 200 and 100 nM. For MMP-3, the final assay concentrations of inhibitors used were 5, 4, 3, 2, 1 and 0.5 nM. For MMP-9 and MMP-14, the final assay concentrations of inhibitors used were 5, 4, 3, 2, 1 and 0.5 μM.
# All assays were carried out in a black 96-well plate with a final volume of 100 μl in each well. Inhibitors were dissolved in dimethylsulphoxide (DMSO) to 1 mM. […] For MMP-2, MMP-3, MMP-9 and MMP-14, fluorescence was read every 2 minutes at […] and 393 nm γem for 1 hour using a Fluorostar fluorimeter (BMG) with BIOLISE software. For MMP-1 assays, the filters used were 355 nm γex and 440 nm γem; fluorescence was read every 2 minutes for 1 hour. […]
smiles,measurement,setting,value
"COC[C@@H](NC(=O)[C@@H](NC(=O)[C@H](CCCc1ccc(-c2cccc(OC)c2)c(C)c1)CC(=O)O)C(C)(C)C)c1ccccc1 [compound 9454, (3R)-3-({[(1S)-2,2-Dimethyl-1-({[(1S)-2-methoxy-1-phenylethyl]amino}carbonyl)propyl]amino}carbonyl)-6-(3′-methoxy-2-methylbiphen-4-yl)hexanoic acid]",Percentage inhibition of proteolysis,uPA and MMP-3,16.3
same,Ki,[1],35500 nM
